Results as given in patent publication US20130184257A1, “PIPERIDINYL-SUBSTITUTED LACTAMS AS GPR119 MODULATORS” (priority 2010, published 2013).

Tested on: modified version of the GPR119 receptor (94% identity to human receptor) stably expressed in HEK-293 cells
Experiment: cAMP Production Assay (LANCE cAMP kit, TR-FRET)
Format: cell-based
Settings: for cAMP production in HEK-293 cells: HEK-293 cells expressing modified GPR119, test compounds 0.2 nM to 10 μM, one-hour incubation at ambient temperature; for Fold over baseline: increase in cAMP relative to basal levels, 1.5-fold or greater = agonist activity
Procedure: The assay utilized HEK-293 cells that stably express a modified version of the GPR119 receptor (94% identity to human receptor), under the control of a CMV promoter containing a tet-on element for tetracycline-inducible expression. GPR119 agonist-induced cyclic AMP (cAMP) production was measured in this cell line using the LANCE cAMP kit (Perkin Elmer, Waltham, Mass.). To generate a working stock of cells for the assay, cells were treated overnight with 1 μg/mL doxycycline at 37° C. in the presence of 5% CO2 to induce receptor expression. Cells were then harvested by enzymatic dissociation with 0.05% trypsin, resuspended in freezing medium (DMEM growth medium with 10% each of fetal bovine serum and DMSO), aliquoted and frozen at −80° C. On the day of the assay, frozen cells were thawed, washed 1× in PBS and resuspended in Hank's buffered salt solution (HBSS) containing 5 mM HEPES, 0.1% BSA and Alexa Fluor 647-conjugated anti-cAMP antibody (diluted 1:100). The cell suspension was then transferred to a Proxiplate Plus white 384-well assay plate (Perkin-Elmer) at 2000 cells/well. Test compounds at final concentrations ranging from 0.2 nM to 10 μM were added to the assay plate, followed by a one-hour incubation at ambient temperature (volume=10 μL/well). DMSO concentration was held constant at 0.5%. After incubation with test compounds, 10 μL of a detergent buffer containing a biotinylated cAMP/Europium-conjugated streptavidin complex (Europium-labeled cAMP tracer) were added to each well on the assay plate, followed by a 2-hour incubation at ambient temperature. During this incubation cAMP released from lysed cells competes with the Europium-labeled cAMP tracer for binding to the Alexa Fluor 647-conjugated antibody. […] Cellular cAMP levels were then determined by interpolation of raw signal data using a cAMP standard curve. Compounds were determined to have agonist activity if they stimulated a 1.5-fold or greater increase in cAMP relative to basal levels.

SMILES: CS(=O)(=O)c1ccc(O[C@H]2CCN(C3CCN(c4noc(C(F)(F)F)n4)CC3)C2=O)c(F)c1 [Example 24, (S)-3-(2-fluoro-4-(methylsulfonyl)phenoxy)-1-(1-(5-(trifluoromethyl)-1,2,4-oxadiazol-3-yl)piperidin-4-yl)pyrrolidin-2-one]
- cAMP production in HEK-293 cells: 81.6 nmol
- Fold over baseline: 4.4

SMILES: CS(=O)(=O)c1cc(F)c(N[C@H]2CCCN(C3CCN(c4noc(C(F)(F)F)n4)CC3)C2=O)cc1F [Example 25, (S)-3-(2,5-difluoro-4-(methylsulfonyl)phenylamino)-1′-(5-(trifluoromethyl)-1,2,4-oxadiazol-3-yl)-1,4′-bipiperidin-2-one]
- cAMP production in HEK-293 cells: 49.0 nmol
- Fold over baseline: 2.9

SMILES: CS(=O)(=O)c1cc(F)c(O[C@H]2CCN(C3CCN(c4noc(C(F)(F)F)n4)CC3)C2=O)cc1F [Example 27, (S)-3-(2,5-difluoro-4-(methylsulfonyl)phenoxy)-1-(1-(5-(trifluoromethyl)-1,2,4-oxadiazol-3-yl)piperidin-4-yl)pyrrolidin-2-one]
- cAMP production in HEK-293 cells: 98.9 nmol
- Fold over baseline: 5.1

SMILES: CS(=O)(=O)c1cc(F)c(O[C@H]2CCN(C3CCN(c4noc(C(F)(F)F)n4)CC3)C2=O)c(F)c1 [Example 28, (S)-3-(2,6-difluoro-4-(methylsulfonyl)phenoxy)-1-(1-(5-(trifluoromethyl)-1,2,4-oxadiazol-3-yl)piperidin-4-yl)pyrrolidin-2-one]
- cAMP production in HEK-293 cells: 101.5 nmol
- Fold over baseline: 5.0

SMILES: CS(=O)(=O)c1ccc(N[C@H]2CCCN(C3CCN(c4noc(C(F)(F)F)n4)CC3)C2=O)c(F)c1 [Example 29, (S)-3-(2-fluoro-4-(methylsulfonyl)phenylamino)-1′-(5-(trifluoromethyl)-1,2,4-oxadiazol-3-yl)-1,4′-bipiperidin-2-one]
- cAMP production in HEK-293 cells: 47.6 nmol
- Fold over baseline: 3.0

SMILES: CS(=O)(=O)c1cc(F)c(N[C@H]2CCN(C3CCN(c4noc(C(F)F)n4)CC3)C2=O)cc1F [Example 30, (S)-3-(2,5-difluoro-4-(methylsulfonyl)phenylamino)-1-(1-(5-(difluoromethyl)-1,2,4-oxadiazol-3-yl)piperidin-4-yl)pyrrolidin-2-one]
- cAMP production in HEK-293 cells: 7.5 nmol
- Fold over baseline: 3.1

SMILES: CS(=O)(=O)c1cc(F)c(N[C@H]2CCN(C3CCN(c4noc(C(F)F)n4)CC3)C2=O)c(F)c1 [Example 31, (S)-3-(2,6-difluoro-4-(methylsulfonyl)phenylamino)-1-(1-(5-(difluoromethyl)-1,2,4-oxadiazol-3-yl)piperidin-4-yl)pyrrolidin-2-one]
- cAMP production in HEK-293 cells: 4.9 nmol
- Fold over baseline: 2.3

SMILES: CS(=O)(=O)c1cc(F)c(N[C@H]2CCCN(C3CCN(c4noc(C(F)F)n4)CC3)C2=O)c(F)c1 [Example 32, (S)-3-(2,6-difluoro-4-(methylsulfonyl)phenylamino)-1′-(5-(difluoromethyl)-1,2,4-oxadiazol-3-yl)-1,4′-bipiperidin-2-one]
- cAMP production in HEK-293 cells: 7.9 nmol
- Fold over baseline: 2.4

SMILES: CS(=O)(=O)c1cc(F)c(N[C@H]2CCCN(C3CCN(c4noc(C(F)F)n4)CC3)C2=O)cc1F [Example 33, (S)-3-(2,5-difluoro-4-(methylsulfonyl)phenylamino)-1′-(5-(difluoromethyl)-1,2,4-oxadiazol-3-yl)-1,4′-bipiperidin-2-one]
- cAMP production in HEK-293 cells: 10.1 nmol
- Fold over baseline: 2.5

SMILES: CCS(=O)(=O)c1ccc(N[C@H]2CCN(C3CCN(c4noc(C(F)(F)F)n4)CC3)C2=O)c(F)c1 [Example 34, (S)-3-(4-(ethylsulfonyl)-2-fluorophenylamino)-1-(1-(5-(trifluoromethyl)-1,2,4-oxadiazol-3-yl)piperidin-4-yl)pyrrolidin-2-one]
- cAMP production in HEK-293 cells: 7.3 nmol
- Fold over baseline: 2.8

SMILES: CS(=O)(=O)c1ccc(N[C@H]2CCN(C3CCN(c4noc(CC(F)(F)F)n4)CC3)C2=O)c(F)c1 [Example 36, (S)-3-(2-fluoro-4-(methylsulfonyl)phenylamino)-1-(1-(5-(2,2,2-trifluoroethyl)-1,2,4-oxadiazol-3-yl)piperidin-4-yl)pyrrolidin-2-one]
- cAMP production in HEK-293 cells: 9.9 nmol
- Fold over baseline: 4.3

SMILES: CCCc1nc(N2CCC(N3CC[C@H](Nc4ccc(S(C)(=O)=O)cc4F)C3=O)CC2)no1 [Example 37]
- cAMP production in HEK-293 cells: 12.2 nmol
- Fold over baseline: 3.7

SMILES: CS(=O)(=O)c1ccc(N[C@H]2CCN(C3CCN(c4noc(-c5ccccn5)n4)CC3)C2=O)c(F)c1 [Example 38, (S)-3-(2-fluoro-4-(methylsulfonyl)-phenylamino)-1-(1-(5-(pyridin-2-yl)-1,2,4-oxadiazol-3-yl)piperidin-4-yl)pyrrolidin-2-one]
- cAMP production in HEK-293 cells: 9.0 nmol
- Fold over baseline: 3.5

SMILES: CC(C)(c1nc(N2CCC(N3CC[C@H](Nc4ccc(S(C)(=O)=O)cc4F)C3=O)CC2)no1)C(F)(F)F [Example 39, (S)-3-(2-fluoro-4-(methylsulfonyl)-phenylamino)-1-(1-(5-(1,1,1-trifluoro-2-methylpropan-2-yl)-1,2,4-oxadiazol-3-yl)piperidin-4-yl)pyrrolidin-2-one]
- cAMP production in HEK-293 cells: 8.7 nmol
- Fold over baseline: 2.9

SMILES: CS(=O)(=O)c1ccc(N[C@H]2CCN(C3CCN(c4noc(C5CCC5)n4)CC3)C2=O)c(F)c1 [Example 40, (S)-1-(1-(5-cyclobutyl-1,2,4-oxadiazol-3-yl)piperidin-4-yl)-3-(2-fluoro-4-(methylsulfonyl)-phenylamino)pyrrolidin-2-one]
- cAMP production in HEK-293 cells: 17.5 nmol
- Fold over baseline: 5.7

SMILES: CC[C@H](C)c1nc(N2CCC(N3CC[C@H](Nc4ccc(S(C)(=O)=O)cc4F)C3=O)CC2)no1 [Example 41, (S)-1-(1-(5-sec-butyl-1,2,4-oxadiazol-3-yl)piperidin-4-yl)-3-(2-fluoro-4-(methylsulfonyl)phenylamino)-pyrrolidin-2-one]
- cAMP production in HEK-293 cells: 15.9 nmol
- Fold over baseline: 4.0

SMILES: CC(C)(F)c1nc(N2CCC(N3CC[C@H](Nc4ccc(S(C)(=O)=O)cc4F)C3=O)CC2)no1 [Example 42, (S)-3-(2-fluoro-4-(methylsulfonyl)-phenylamino)-1-(1-(5-(2-fluoropropan-2-yl)-1,2,4-oxadiazol-3-yl)piperidin-4-yl)pyrrolidin-2-one]
- cAMP production in HEK-293 cells: 12.5 nmol
- Fold over baseline: 5.1

SMILES: CS(=O)(=O)c1ccc(N[C@H]2CCN(C3CCN(c4noc(C5CCCC5)n4)CC3)C2=O)c(F)c1 [Example 43, (S)-1-(1-(5-cyclopentyl-1,2,4-oxadiazol-3-yl)piperidin-4-yl)-3-(2-fluoro-4-(methylsulfonyl)-phenylamino)-pyrrolidin-2-one]
- cAMP production in HEK-293 cells: 14.7 nmol
- Fold over baseline: 3.6

SMILES: CS(=O)(=O)c1ccc(N[C@H]2CCN(C3CCN(c4noc(-c5ccccc5)n4)CC3)C2=O)c(F)c1 [Example 44, (S)-3-(2-fluoro-4-(methylsulfonyl)-phenylamino)-1-(1-(5-phenyl-1,2,4-oxadiazol-3-yl)piperidin-4-yl)pyrrolidin-2-one]
- cAMP production in HEK-293 cells: 19.5 nmol
- Fold over baseline: 6.8

SMILES: CS(=O)(=O)c1ccc(N[C@H]2CCN(C3CCN(c4noc(C5CC5)n4)CC3)C2=O)c(F)c1 [Example 45, (S)-1-(1-(5-cyclopropyl-1,2,4-oxadiazol-3-yl)piperidin-4-yl)-3-(2-fluoro-4-(methylsulfonyl)-phenylamino)-pyrrolidin-2-one]
- cAMP production in HEK-293 cells: 13.3 nmol
- Fold over baseline: 5.3

SMILES: CS(=O)(=O)c1ccc(N[C@H]2CCN(C3CCN(c4noc(C5(C(F)(F)F)CC5)n4)CC3)C2=O)c(F)c1 [Example 46, (S)-3-(2-fluoro-4-(methylsulfonyl)-phenylamino)-1-(1-(5-(1-(trifluoromethyl)-cyclopropyl)-1,2,4-oxadiazol-3-yl)piperidin-4-yl)pyrrolidin-2-one]
- cAMP production in HEK-293 cells: 8.2 nmol
- Fold over baseline: 2.7

SMILES: CCC(F)(F)c1nc(N2CCC(N3CC[C@H](Nc4ccc(S(C)(=O)=O)cc4F)C3=O)CC2)no1 [Example 47, (S)-1-(1-(5-(1,1-difluoropropyl)-1,2,4-oxadiazol-3-yl)piperidin-4-yl)-3-(2-fluoro-4-(methylsulfonyl)-phenylamino)pyrrolidin-2-one]
- cAMP production in HEK-293 cells: 17.2 nmol
- Fold over baseline: 2.5

SMILES: CC(F)(F)c1nc(N2CCC(N3CCC[C@H](Nc4cc(F)c(S(C)(=O)=O)cc4F)C3=O)CC2)no1 [Example 48, (S)-3-(2,5-difluoro-4-(methylsulfonyl)phenylamino)-1′-(5-(1,1-difluoroethyl)-1,2,4-oxadiazol-3-yl)-1,4′-bipiperidin-2-one]
- cAMP production in HEK-293 cells: 8.4 nmol
- Fold over baseline: 2.3
